# Laboratory results: a melting point compilation (Tetko et al.; mined from patent text by program, amines drawn as free bases though some values may be those of a salt)
row,SMILES,melting point [°C]
1,CCOc1nc(C(F)(F)F)cc(=O)n1-c1cc(OC)c(Br)cc1F,126 to 128
2,COC(=O)c1cnc(N2CCN(c3nc4ccc(C(F)(F)F)cc4[nH]3)CC2)c(Cl)c1,153 to 159
3,O=C(/C=C/c1cccc(S(=O)(=O)N2CCN(CC(c3ccccc3)c3ccccc3)CC2)c1)NO,117
4,Cc1nc2c3c(ccc2n1C)C(O)C(OC(=O)C(C)(C)C)C(c1ccccc1)O3 (centres undefined),148
5,COC(=O)C1=CC(C(=O)c2cc(Br)cc(Br)c2O)=CN2CCc3c([nH]c4ccccc34)C12C(=O)OC (centres undefined),131
6,CCCCCCC(C)(C)c1cc(OCc2ccccc2)c(C2=C(CC#N)CCC(C)C2)c(OCc2ccccc2)c1 (centres undefined),85 to 86
7,Cc1ccc(C(=O)Nc2ccc(N3CCN(Cc4ccc[nH]4)CC3)cc2)c(-c2ccc(C(F)(F)F)cc2)c1,196 to 198
8,Cc1ccc(S(=O)(=O)NC(=O)N2CCN(C(=O)c3ccc(Nc4ccnc5cc(C(F)(F)F)ccc45)cc3)CC2)cc1,253 to 255
9,CC1(C)OCCn2c1nc(C(=O)NCc1ccc(F)cc1P(=O)(O)OCc1ccccc1)c(OCc1ccccc1)c2=O,142
10,CCCCCS(=O)(=O)NC(=O)/C=C/c1ccc(OCCCS(C)(=O)=O)cc1Oc1ncc(C(F)(F)F)cc1Cl,194 to 196
11,CCCCCCCC(=O)N1CCc2nnc(NN=C(C)C)cc2C1,118 to 121
12,C=CCC(Cc1ccc([N+](=O)[O-])cc1)NC(=O)OCc1ccccc1 (centres undefined),94 to 95
13,O=C(O)CCCCOC(c1ccccc1)(c1ccccc1)c1ccccc1,146 to 148
14,CCCCCCNC(=O)NC1CCCc2sccc21 (centres undefined),122 to 124
15,CCOC(=O)C(=C(NC)NCc1ccc(Cl)nc1)[N+](=O)[O-],231 to 233
16,CC(=O)c1cccc(-c2nc(Nc3ccc(OC(F)(F)F)cc3)cc(N3CCOCC3)n2)c1,218 to 220
17,CCc1nc2c(C)cc(C)nc2n1Cc1ccc(C(CC(=O)NS(=O)(=O)c2ccccc2)c2ccccc2)cc1 (centres undefined),81 to 86
18,COc1ccnc2c(S(=O)c3nc4ccccc4[nH]3)cccc12 (centres undefined),178 to 179
19,COc1ccc(-c2c(Cl)c(CN3C(=O)CCC3=O)nc3sc4c(c23)CCNC4)cc1OC,250 to 252
20,CCOC(=O)c1ccc(OC(=O)CCCC(=O)Oc2ccc(C(=O)OCC)cc2)cc1,81 to 82

row,SMILES,melting point [°C]
1,O=C(O)CSc1nc(-c2ccccc2)ns1,97
2,O=C(c1ccc2cc(Cl)ccc2c1)C1CCNCC1,98 to 100
3,Sc1nsnc1-c1c(Cl)cccc1Cl,91 to 94
4,O=C(NCCc1nc(-c2ccncn2)cc(=O)[nH]1)OCc1ccccc1,252 to 254
5,O=C1CCC(Br)C(=O)N1 (centres undefined),76 to 83
6,Cc1cc(C2=NOC(c3cc(Cl)cc(Cl)c3)(C(F)(F)F)C2)ccc1Cl (centres undefined),110 to 111
7,CCCCc1oc2ccccc2c1C(=O)NCc1ccc2c(-c3ccc(C)cc3)c(OCC#N)ccc2c1,114 to 117
8,N#CN=C(Nc1cncc(N)c1)NC1(c2ccccc2)CCC1,213 to 214
9,COc1ccc(C2Cc3c(cccc3C(F)(F)F)NC(=O)C2=O)cc1 (centres undefined),221 to 223
10,CC(C)N1CC[C@@H](Oc2ccc(-n3ccc(OCc4ccc(Cl)cn4)cc3=O)cc2)C1,154 to 155
11,CC(C)OC(=O)C1(c2onc(-c3ccc(O)cc3)c2-c2ccccc2)CC1,175
12,O=C1N(Cc2nnc(-c3ccc(Cl)cc3)o2)c2ccccc2C12COc1cc3c(cc12)OCO3 (centres undefined),161 to 162
13,CCCc1nn(-c2ccc(C(F)(F)F)cn2)cc1CCCOc1nn(C)cc1CC(=O)O,119 to 120
14,O=S1(=O)N[C@@H](c2ccccc2)c2ccccc21,139
15,Fc1ccc(Nc2nc(Cl)nc(Cl)n2)cc1C(F)(F)F,114 to 117
16,O=C(O)COc1ccc2cc(-c3csc(Cc4c(Cl)cccc4Cl)n3)ccc2c1,205 to 207
17,CC(=O)N1CCC(Oc2cccc(C(F)(F)F)c2)(c2ccccc2)CC1,100 to 103
18,CCCC(CCOc1c(-c2ccc(S(C)(=O)=O)cc2)cnn(-c2ccc(F)cc2)c1=O)SC (centres undefined),90 to 92
19,Nc1ncccc1-c1nc2cc(-c3cccnc3)cnc2n1-c1ccc(CNS(=O)(=O)C2CC2)cc1,197 to 199
20,CNc1nc(NCc2ccc(NC(=O)C3CCN(Cc4ccccc4)CC3)cc2)c2ccc(C)cc2n1,128

row,SMILES,melting point [°C]
1,CC(=O)Oc1cc2c(c(OC(C)=O)c1)C1CCC3(C)C(O)CCC3C1CC2 (centres undefined),210 to 211
2,O=C(CCc1ccccc1)N[C@H](Cc1ccc(C(F)(F)F)cc1)[C@@H](O)c1ccc(Cl)nc1 (racemic),149 to 150
3,CCCC12CCC3C4CCCC=C4CCC3C1CCC2O (centres undefined),115 to 119
4,CCCc1nc2c(N)nc(C)c(C)c2n1CC(C)(C)NS(C)(=O)=O,85 to 93
5,CCc1cn2c(n1)Cc1cc3c(cc1C(c1ccc(N)cc1)=N2)OCO3,192 to 194
6,CCOC(=O)C1=CC2(CCC1S(=O)(=O)Nc1ccc(F)cc1Cl)S(=O)(=O)CCS2(=O)=O (centres undefined),88 to 90
7,O=C(Nc1cc(F)c(-c2ccncc2)c(F)c1)OCc1ccccc1,185 to 186
8,O=C(Nc1ccc2[nH]ccc2c1)C(=O)N1CCC(Cc2ccccc2)CC1,68 to 72
9,CS(=O)(=O)O[C@@H](CO)[C@H](Cc1ccccc1)NC(=O)OCc1ccccc1,121 to 122
10,O=C(O)c1cnn(O)c1,230
11,Cc1nc(-c2ccc(F)cc2)sc1C(=O)NCc1ccc(OC(C)(C)C(=O)O)cc1,159
12,CCCc1c(C(=O)C(C)C)c2ccc(C(=O)O)cc2n1Cc1ccccc1OC,190 to 191
13,Fc1ccc(C(=C2SCSCS2)c2ccc(F)cc2)cc1,153 to 154
14,CCc1nc2ccc(Cc3ccc(C(=O)NO)cc3)cc2c(=O)n1CCc1ccccc1,181 to 183
15,NC(=O)OC(CC(=NNC(N)=S)c1ccccc1)c1ccccc1 (centres undefined),149 to 150
16,CCOc1nc2c(nc1C(=O)O)c(C)nn2CC,172
17,O=C1c2ccccc2C(=O)N1CCCOc1cccc2c(O)nccc12,> 300
18,Cc1nccn1-c1cccc(C2=Nc3cc(O)c(-c4ccc(F)cc4)cc3NC(=O)C2)c1,260
19,CCOc1nc2ccccc2nc1NC(=O)N1CCN(c2cc(Cl)cc(Cl)c2)CC1,157 to 159

# Other lines, results leading:
row,melting point [°C],SMILES
1,254 to 256,CC(=O)NNC(=O)c1cc2cccc(NS(=O)(=O)c3cccs3)c2[nH]1
2,82 to 84,CCCCOc1ccc([N+](=O)[O-])c(C(=O)O)c1
3,214 to 217,CN(N)c1cc(N)nc(N)n1
4,151 to 155,C=CCCc1ccc(C(=O)O)c(O)n1
5,118 to 120,CN(C)C1=NCc2ccc(Cl)cc2O1
6,112 to 114,COP(=O)(Cc1cc(C(C)(C)C)c(O)c(C(C)(C)C)c1)c1ccccc1 (centres undefined)
7,211 to 213,Nc1cc(N2CCCC2)c2c(Cl)ccc3c2c1C(=O)N(O)C3=O
8,315 to 317,Cc1c(C(=O)O)sc2cncc(Oc3ccc(Cl)cc3)c12
9,211 to 212,Cc1cc(N2N=CCNC2=O)cc(Cl)c1C(C#N)c1ccc(Cl)nc1 (centres undefined)
10,77.9 to 78.2,C=CCOc1ccc(C(=O)C=Cc2cc(OC)c(CCCCCC)c(OC)c2)cc1
11,193 to 199,CCc1nc2c(O)cc(C(=O)N(C)C)cc2n1C
12,124 to 132,CCN(CCc1coc2c(OC)cccc12)C1COc2c(F)ccc(C(N)=O)c2C1 (centres undefined)
13,118 to 119,Cn1cnnc1NCCCOc1cccc(CN2CCCCC2)c1
14,169 to 170,Cc1ccc([N+](=O)[O-])cc1S(=O)(=O)n1nnc2ccccc21
15,108 to 110,COC(=O)c1nnc(NC(=O)CCCOc2cccc(CN3CCCCC3)c2)n1C
16,130 to 131,C=CCOC(=O)C1=C(C)NC(C)=C(C(=O)OCC=C)C1c1ccc(Br)cc1
17,158,COc1nn(C(=S)Oc2ccccc2)c(=O)n1N
18,156,CN(C)C(=O)Nc1ccc(Oc2ccc3sncc3c2)cc1
19,116 to 117,Cc1cc(SC(C)C)c(NC(=O)CCCSc2nc3ccccc3s2)c(SC(C)C)n1
20,132,Cc1ccc(S(=O)(=O)Nc2cc(C(C)C)c([N+](=O)[O-])cc2Br)cc1

row,melting point [°C],SMILES
1,120 to 121,CCOC(=O)c1ccc(CNC(=O)CCl)cc1O
2,128 to 132,CC(=O)NC(Cc1ccccc1)C(=O)NC(C)C(=O)O (centres undefined)
3,126 to 127,CCOC(=O)c1ccc2nc(C)n(Cc3ccccc3Cl)c2c1
4,64 to 65,Cc1ccc(N(C)C)cc1C=O
5,110 to 112,OCc1ccccc1CCCc1cc2c(cc1O)CCO2
6,187 to 188,CCCc1cn2c(=O)c(C(=O)OCC)cnc2c2cc(OC)ccc12
7,146 to 149,CC1(C)CCc2cc(OCc3ccccc3)c(O)c([N+](=O)[O-])c2C1=O
8,203 to 205,CC(C)(C)c1ccnc(C(=O)c2[nH]c3cc(Cl)ccc3c2CC(=O)O)c1
9,157 to 158,CCOC(=O)COn1c2c([nH]c(=O)c1=O)CCC1=C2C=C(n2c(C)ccc2C)CC1
10,224 to 225,CC(C)On1cnc2c(N)nc3ccccc3c21
11,260 to 261,Cn1nnnc1-c1cn(C)c2ccc(F)cc2c1=O
12,211,CC1(C)OCC(NC(=O)c2ccc([N+](=O)[O-])cc2)CO1
13,157 to 158,NC(=O)c1c(Cl)ccc(Br)c1F
14,319 to 320,Cc1cccc2c(C(=O)O)cc(-c3ccccn3)nc12
15,77 to 79,Cc1c[nH]c2c(C=O)cccc12
16,103 to 104,CCOC(=O)CCCCCn1c(=O)[nH]c2ccccc2c1=O
17,55 to 57,CCOC(=O)c1cc(C#N)c(C)nc1NC(C)CC (centres undefined)
18,118 to 120,COCCCn1c(O)nc2ccc(C)cc21
19,150 to 152,COCC(=O)N(c1c(C)cccc1C)C(CCO)C(=O)O (centres undefined)
20,125,CC(C)(C)OC(=O)N1CCC[C@H]1COc1cccc2[nH]ncc12
